Where “and” joins values, the source holds several entries; their conditions need not be identical. Equal entries are not always repeated.
Tests used:
[1] = tested on: acetylcholine-induced bronchospasm; assay: Bronchorelaxation in vivo: acetylcholine-induced bronchoconstriction in Brown Norway rats, RL and Cdyn (C-3.2); design: species or system rat; conditions: inhaled 60 minutes before provocation; tiotropium 1 μg/kg; comparative example 11 1, 10 and 100 μg/kg
Description: The bronchoconstriction model (see Hoymann H G. Lung function measurements in rodents in safety pharmacology studies. Front Pharmacol 2012; 3:156) used Male Brown Norway rats (Charles River, Sulzfeld, Germany; 10-12 weeks old) randomized to three treatment groups (comparative example 11, 1 μg/kg, 10 μg/kg, and 100 μg/kg; n=12-13), one positive control group (tiotropium 1 μg/kg; n=12), and one vehicle control group (n=17). Animals were treated with the inhaled test compounds 60 minutes before provocation. Comparative example 11, vehicle, or tiotropium were aerosolized using a micro feeding system and a dispersion nozzle operated with pressurized air. The aerosol concentration was determined by filter sampling with gravimetrical analysis and monitored continuously by a photometer. The lung-deposited doses were assessed from the inhalation dose (Raabe O G, Al-Bayati M A, Teague S V, Rasolt A. Regional Deposition of Inhaled Monodisperse Coarse and Fine Aerosol Particles in Small Laboratory Animals. The Annals of Occupational Hygiene 1988; 32:53-63.). […] After reaching a steady state in respiration, lung function of the spontaneously breathing animal was recorded as baseline values for ≥2 minutes; amongst other parameters, lung resistance (=RL) and dynamic compliance (=Cdyn) were used to assess bronchoconstriction. […]

[2] = tested on: thromboxane analog U46619 induced PAH in minipigs with ODQ or L-NAME pretreatment; assay: PAH minipig model under oxidative stress / low NO (pretreatment by ODQ or L-NAME); type: in vivo, Göttingen minipig; design: PAP / BP: unit not given beside the values; conditions: for BP / PAP: 30 μg/kg nominal dose inhaled
Description: To simulate conditions of oxidative stress or low NO concentrations as assumed to be present in different cardiovascular disorders, comparative example 11 was evaluated with and without pretreatment by ODQ (inhibitor of sGC) or L-NAME (NOS inhibitor). […] In contrast, the effects of Ventavis® under conditions of oxidative stress or low NO concentrations were not enhanced. In addition, also under these pathophysiological conditions the duration of action of comparative example 11 was much longer compared to Ventavis®.

plasma proteins = assay: Protein binding via Transil assay, human plasma; type: in vitro ADME; conditions: plasma
Description: The distribution of a test substance between Transil® (phosphatidylcholine lipid bilayers immobilized on silica beads) and plasma is a characteristic feature of any pharmaceutical compound and is dependent on its extent of binding to plasma proteins. By comparing the distribution between Transil® and buffer with the distribution between Transil® and plasma of any species of interest, the unbound fraction in the plasma of the respective animal species can be calculated in vitro. The respective plasma and buffer concentrations were determined via a radioactivity analysis. A detailed description of the method and its validation was published by Schuhmacher et al. (2).

systemic blood pressure = assay: First clinical studies in healthy volunteers: systemic blood pressure; type: in vivo, human; conditions: up to 4000 μg, dry powder inhaled

Q: With `O=C(O)c1ccc(CCN(CCc2ccccc2OCc2ccc(-c3ccc(C(F)(F)F)cc3)cc2Cl)[C@H]2CCCc3nc(C(=O)O)ccc32)cc1` [comparative example 11, (5S)-5-{[2-(4-carboxyphenyl)ethyl][2-(2-{[3-chloro-4′-(trifluoromethyl)[biphenyl]-4-yl]methoxy}phenyl)ethyl]amino}-5,6,7,8-tetrahydroquinoline-2-carboxylic acid] as the compound, how does the “bronchodilatory efficacy (RL)” value [1] read?
A: dose-dependent significant (1, 10 and 100 μg/kg) bronchodilating effect

Q: And the BP ([2]; L-NAME pretreatment, Time 170)?
A: 103.0 and 135.0 and 123.0

Q: What about the PAP ([2]; L-NAME pretreatment, Time 170) of the same compound?
A: 39.5 and 36.2 and 34.6

Q: What about the BP ([2]; L-NAME pretreatment, Time 180) of the same compound?
A: 104.0 and 139.0 and 127.0

Q: What about the PAP ([2]; L-NAME pretreatment, Time 180) of the same compound?
A: 38.9 and 29.1 and 30.8

Q: What about the BP ([2]; L-NAME pretreatment, Time 190) of the same compound?
A: 104.0 and 137.0 and 127.0

Q: What about the PAP ([2]; L-NAME pretreatment, Time 190) of the same compound?
A: 38.0 and 25.9 and 28.4

Q: And the BP ([2]; L-NAME pretreatment, Time 200)?
A: 104.0 and 135.0 and 129.0

Q: And the PAP ([2]; L-NAME pretreatment, Time 200)?
A: 36.8 and 24.6 and 28.1

Q: What about the BP ([2]; L-NAME pretreatment, Time 210) of the same compound?
A: 105.0 and 133.0 and 127.0

Q: What about the PAP ([2]; L-NAME pretreatment, Time 210) of the same compound?
A: 36.5 and 23.9 and 26.6

Q: And the BP ([2]; L-NAME pretreatment, Time 220)?
A: 107.0 and 131.0 and 127.0

Q: And the PAP ([2]; L-NAME pretreatment, Time 220)?
A: 36.6 and 23.8 and 25.5

Q: And the BP ([2]; L-NAME pretreatment, Time 230)?
A: 108.0 and 127.0 and 129.0

Q: What about the PAP ([2]; L-NAME pretreatment, Time 230) of the same compound?
A: 35.5 and 23.6 and 25.6

Q: And the BP ([2]; L-NAME pretreatment, Time 240)?
A: 106.0 and 128.0

Q: What about the PAP ([2]; L-NAME pretreatment, Time 240) of the same compound?
A: 35.0 and 24.0 and 25.0

Q: And the BP ([2]; L-NAME pretreatment, Time 250)?
A: 106.0 and 126.0 and 130.0

Q: And the PAP ([2]; L-NAME pretreatment, Time 250)?
A: 34.5 and 23.5 and 24.8

Q: And the BP ([2]; L-NAME pretreatment, Time 260)?
A: 107.0 and 126.0 and 130.0

Q: What about the PAP ([2]; L-NAME pretreatment, Time 260) of the same compound?
A: 34.6 and 24.2 and 24.7

Q: And the BP ([2]; L-NAME pretreatment, Time 270)?
A: 104.0 and 126.0 and 129.0

Q: And the PAP ([2]; L-NAME pretreatment, Time 270)?
A: 34.1 and 24.0 and 24.3

Q: What about the BP ([2]; L-NAME pretreatment, Time 280) of the same compound?
A: 103.0 and 125.0 and 129.0

Q: And the PAP ([2]; L-NAME pretreatment, Time 280)?
A: 33.4 and 23.7 and 24.4

Q: What about the BP ([2]; L-NAME pretreatment, Time 290) of the same compound?
A: 104.0 and 126.0 and 128.0

Q: And the PAP ([2]; L-NAME pretreatment, Time 290)?
A: 34.4 and 23.4 and 24.2

Q: And the BP ([2]; L-NAME pretreatment, Time 300)?
A: 105.0 and 125.0 and 127.0

Q: And the PAP ([2]; L-NAME pretreatment, Time 300)?
A: 34.2 and 24.1 and 24.0

Q: And the BP ([2]; L-NAME pretreatment, Time 310)?
A: 103.0 and 125.0 and 128.0

Q: And the PAP ([2]; L-NAME pretreatment, Time 310)?
A: 33.3 and 23.6 and 24.3

Q: And the BP ([2]; L-NAME pretreatment, Time 320)?
A: 104.0 and 125.0 and 126.0

Q: And the PAP ([2]; L-NAME pretreatment, Time 320)?
A: 33.8 and 23.1 and 24.0

Q: What about the BP ([2]; L-NAME pretreatment, Time 330) of the same compound?
A: 105.0 and 126.0 and 125.0

Q: What about the PAP ([2]; L-NAME pretreatment, Time 330) of the same compound?
A: 34.1

Q: And the BP ([2]; L-NAME pretreatment, Time 340)?
A: 104.0 and 126.0 and 125.0

Q: What about the BP ([2]; without pretreatment, Time 170) of the same compound?
A: 90.0 and 108.0

Q: What about the PAP ([2]; without pretreatment, Time 170) of the same compound?
A: 39.7 and 38.0 and 42.6

Q: And the BP ([2]; without pretreatment, Time 180)?
A: 90.0 and 108.0

Q: What about the PAP ([2]; without pretreatment, Time 180) of the same compound?
A: 38.5 and 37.1 and 41.5

Q: And the BP ([2]; without pretreatment, Time 190)?
A: 90.0 and 107.0 and 108.0

Q: What about the PAP ([2]; without pretreatment, Time 190) of the same compound?
A: 37.0 and 35.9 and 40.3

Q: What about the BP ([2]; without pretreatment, Time 200) of the same compound?
A: 89.0 and 109.0

Q: What about the PAP ([2]; without pretreatment, Time 200) of the same compound?
A: 36.5 and 35.2 and 39.0

Q: And the BP ([2]; without pretreatment, Time 210)?
A: 89.0 and 108.0 and 109.0

Q: And the PAP ([2]; without pretreatment, Time 210)?
A: 35.6 and 34.2 and 38.5

Q: And the BP ([2]; without pretreatment, Time 220)?
A: 88.0 and 110.0 and 108.0

Q: And the PAP ([2]; without pretreatment, Time 220)?
A: 34.7 and 33.9 and 36.8

Q: And the BP ([2]; without pretreatment, Time 230)?
A: 87.0 and 108.0

Q: And the PAP ([2]; without pretreatment, Time 230)?
A: 34.8 and 33.4 and 37.1

Q: What about the BP ([2]; without pretreatment, Time 240) of the same compound?
A: 87.0 and 109.0 and 108.0

Q: What about the PAP ([2]; without pretreatment, Time 240) of the same compound?
A: 34.5 and 33.6 and 37.0

Q: What about the BP ([2]; without pretreatment, Time 250) of the same compound?
A: 86.0 and 110.0 and 109.0

Q: And the PAP ([2]; without pretreatment, Time 250)?
A: 34.3 and 33.5 and 36.7

Q: What about the BP ([2]; without pretreatment, Time 260) of the same compound?
A: 87.0 and 109.0 and 110.0

Q: What about the PAP ([2]; without pretreatment, Time 260) of the same compound?
A: 34.1 and 33.3 and 36.5

Q: And the BP ([2]; without pretreatment, Time 270)?
A: 86.0 and 108.0 and 110.0

Q: What about the PAP ([2]; without pretreatment, Time 270) of the same compound?
A: 34.0 and 33.6 and 36.2

Q: And the BP ([2]; without pretreatment, Time 280)?
A: 88.0 and 109.0

Q: And the PAP ([2]; without pretreatment, Time 280)?
A: 34.5 and 33.5 and 35.6

Q: And the BP ([2]; without pretreatment, Time 290)?
A: 88.0 and 108.0 and 110.0

Q: What about the PAP ([2]; without pretreatment, Time 290) of the same compound?
A: 34.7 and 33.6 and 35.5

Q: What about the BP ([2]; without pretreatment, Time 300) of the same compound?
A: 86.0 and 107.0 and 111.0

Q: And the PAP ([2]; without pretreatment, Time 300)?
A: 34.1 and 33.2 and 35.4

Q: And the BP ([2]; without pretreatment, Time 310)?
A: 85.0 and 107.0 and 109.0

Q: And the PAP ([2]; without pretreatment, Time 310)?
A: 34.0 and 33.6 and 35.1

Q: What about the BP ([2]; without pretreatment, Time 320) of the same compound?
A: 85.0 and 108.0 and 109.0

Q: And the PAP ([2]; without pretreatment, Time 320)?
A: 34.5 and 34.0 and 35.8

Q: What about the BP ([2]; without pretreatment, Time 330) of the same compound?
A: 85.0 and 108.0 and 109.0

Q: And the PAP ([2]; without pretreatment, Time 330)?
A: 34.8 and 34.0 and 35.9

Q: What about the BP ([2]; without pretreatment, Time 340) of the same compound?
A: 85.0

Q: What about the “effect on PAP after pretreatment of ODQ or L-NAME” value ([2]; inhaled, comparative example 11 30 μg/kg ND, Ventavis 10 μg/kg nominal dose) of the same compound?
A: enhanced decrease of PAP without effects on systemic BP

Q: What about the “ratio of fraction unbound minipig/human” value (plasma proteins) of the same compound?
A: 4.55

Q: How did the “effect on systemic blood pressure in healthy volunteers” value (systemic blood pressure) turn out when `O=C(O)c1ccc(CCN(CCc2ccccc2OCc2ccc(-c3ccc(C(F)(F)F)cc3)cc2Cl)[C@H]2CCCc3nc(C(=O)O)ccc32)cc1` [example 4, (5S)-{[2-(4-Carboxyphenyl)ethyl][2-(2-{[3-chloro-4′-(trifluoromethyl)biphenyl-4-yl]methoxy}phenyl)-ethyl]amino}-5,6,7,8-tetrahydroquinoline-2-carboxylic acid] was run?
A: no clinically meaningful effect on systemic blood pressure

Reference: patent US12138256B2, “Treatment of cardiopulmonary disorders” (Bayer Aktiengesellschaft, priority 2021, dated 2024)
